Results: patent publication US20250346597A1, “CONDENSED HETEROCYCLIC COMPOUNDS AS INHIBITOR OF DIACYLGLYCEROL KINASES” (BEONE MEDICINES I GMBH, priority 2023, published 2025)

How the values were obtained:
DGKα = DGKα (Homo sapiens (Human), UniProt P23743); assay: Biochemical DGK IC50 assay (ADP-Glo, lipid micelle substrate), DGKα; details: full length DGKα […], ATP 140 μM, DAG 80 μM; also: full length DGKα 7.5 nM
Method in brief: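 Full-length human DGKα assayed by ADP-Glo with DAG/PS lipid micelle substrate at room temperature in 50 mM HEPES, 10 mM MgCl2, 0.01% BSA, 0.1 mM Na3VO4, 0.005% Tween-20, 0.01 mM CaCl2.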

DGKζ = DGKζ (Homo sapiens (Human), UniProt Q13574); assay: Biochemical DGK IC50 assay (ADP-Glo, lipid micelle substrate), DGKζ; details: full length DGKζ 0.5 nM, ATP 140 μM, DAG 80 μM
Chain of DGKζ (Q13574 other isoform, or with tags, fused parts or gaps): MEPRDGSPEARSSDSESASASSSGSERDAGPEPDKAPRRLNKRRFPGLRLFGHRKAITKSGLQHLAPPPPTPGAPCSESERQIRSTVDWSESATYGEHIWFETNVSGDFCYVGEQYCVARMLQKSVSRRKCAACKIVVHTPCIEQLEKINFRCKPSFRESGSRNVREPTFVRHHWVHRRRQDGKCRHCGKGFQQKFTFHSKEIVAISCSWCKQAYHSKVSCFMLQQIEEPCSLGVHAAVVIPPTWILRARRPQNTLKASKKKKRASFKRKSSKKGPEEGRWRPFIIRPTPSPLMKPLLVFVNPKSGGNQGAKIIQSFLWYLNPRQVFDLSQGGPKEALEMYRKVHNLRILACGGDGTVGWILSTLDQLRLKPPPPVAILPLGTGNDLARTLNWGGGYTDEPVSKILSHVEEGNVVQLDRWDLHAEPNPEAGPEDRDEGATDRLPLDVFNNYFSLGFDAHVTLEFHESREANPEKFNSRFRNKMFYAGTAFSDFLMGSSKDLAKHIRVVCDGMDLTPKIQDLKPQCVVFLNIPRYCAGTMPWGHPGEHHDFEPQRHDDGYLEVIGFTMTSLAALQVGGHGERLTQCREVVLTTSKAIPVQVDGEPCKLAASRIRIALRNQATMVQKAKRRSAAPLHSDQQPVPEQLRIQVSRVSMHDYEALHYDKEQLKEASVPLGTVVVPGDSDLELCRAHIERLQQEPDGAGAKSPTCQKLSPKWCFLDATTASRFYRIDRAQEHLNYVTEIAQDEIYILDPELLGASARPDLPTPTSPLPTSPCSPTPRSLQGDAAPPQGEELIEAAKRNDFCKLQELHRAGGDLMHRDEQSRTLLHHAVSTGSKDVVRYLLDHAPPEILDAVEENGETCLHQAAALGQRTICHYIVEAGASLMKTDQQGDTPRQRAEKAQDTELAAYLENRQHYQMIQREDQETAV
Method in brief: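 Full-length human His-TEV-tagged DGKζ, expressed in Sf9 cells and purified, was run at room temperature on DAG/PS lipid micelles in 50 mM HEPES, 10 mM MgCl2, 0.01 mM CaCl2 buffer. After 1 h reaction, ADP formed was detected by ADP-Glo luminescence. IC50s came from inhibition across increasing compound concentrations.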

Chain of DGKα (P23743 whole entry): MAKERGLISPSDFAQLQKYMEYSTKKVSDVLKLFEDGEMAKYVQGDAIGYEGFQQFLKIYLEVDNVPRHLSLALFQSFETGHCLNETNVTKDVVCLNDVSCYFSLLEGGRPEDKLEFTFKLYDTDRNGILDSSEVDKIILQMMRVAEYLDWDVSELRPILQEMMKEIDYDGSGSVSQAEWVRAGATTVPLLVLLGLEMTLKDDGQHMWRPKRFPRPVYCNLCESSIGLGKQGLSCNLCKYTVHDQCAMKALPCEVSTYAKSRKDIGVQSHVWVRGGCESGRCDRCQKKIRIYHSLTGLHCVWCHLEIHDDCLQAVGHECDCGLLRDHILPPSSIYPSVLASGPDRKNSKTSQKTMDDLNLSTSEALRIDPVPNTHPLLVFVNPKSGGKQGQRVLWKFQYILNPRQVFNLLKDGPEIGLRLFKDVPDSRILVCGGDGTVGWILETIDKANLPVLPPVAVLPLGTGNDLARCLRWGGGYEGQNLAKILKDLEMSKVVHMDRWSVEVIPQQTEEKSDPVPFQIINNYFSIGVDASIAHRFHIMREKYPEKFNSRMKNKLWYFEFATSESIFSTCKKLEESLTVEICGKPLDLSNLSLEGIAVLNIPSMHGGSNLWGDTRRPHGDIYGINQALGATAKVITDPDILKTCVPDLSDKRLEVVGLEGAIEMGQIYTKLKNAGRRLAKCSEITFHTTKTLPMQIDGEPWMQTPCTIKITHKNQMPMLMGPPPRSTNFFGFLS

Row | Structure (SMILES) | IC50 (DGKα) | IC50 (DGKζ)
1 | CC[C@H]1CN(C(C)c2ccn3ncc(F)c3n2)[C@H](CC)CN1c1cc(=O)n(C)c2cn(CC#N)nc12 (single isomer, unassigned) [Compound A161a] | > 10 µM | > 10 µM
2 | CC[C@H]1CN(C(C)c2ccn3nc(C)cc3c2)[C@H](CC)CN1c1cc(=O)n(C)c2cn(CC#N)nc12 (single isomer, unassigned) [Compound A162b] | 2.43 µM | 3.27 µM
3 | CC[C@H]1CN(C(C)c2ccn3nccc3n2)[C@H](CC)CN1c1nc(=O)n(C)c2cn(CC#N)nc12 (single isomer, unassigned) [Compound A163a] | 1.9 µM | > 10 µM
4 | CC[C@H]1CN(C(C)c2ccn3ncc(F)c3n2)[C@H](CC)CN1c1nc(=O)n(C)c2cn(CC#N)nc12 (single isomer, unassigned) [Compound A164a] | 7.3 µM | > 10 µM
5 | CC[C@H]1CN(C(C)c2ccn3ncc(F)c3c2)[C@H](CC)CN1c1cc(=O)n(C)c2cn(CC#N)nc12 (single isomer, unassigned) [Compound A165b] | 2.44 µM | 1.58 µM
6 | CC[C@H]1CN(C(C)c2ccc3ncc(Cl)n3n2)[C@H](CC)CN1c1cc(=O)n(C)c2cn(CC#N)nc12 (single isomer, unassigned) [Compound A167a] | > 10 µM | > 10 µM
7 | CC[C@H]1CN(C(C)c2ccc3ncc(F)n3n2)[C@H](CC)CN1c1cc(=O)n(C)c2cn(CC#N)nc12 (single isomer, unassigned) [Compound A168a] | 3.41 µM | 3.6 µM
8 | CC[C@H]1CN(C(C)c2ccn3nc(C)c(F)c3c2)[C@H](CC)CN1c1cc(=O)n(C)c2cn(CC#N)nc12 (single isomer, unassigned) [Compound A169a] | 3.21 µM | 0.211 µM
9 | CC[C@H]1CN(C(C)c2ccn3nc(C)c(F)c3c2)[C@H](CC)CN1c1cc(=O)n(C)c2cn(CC#N)nc12 (single isomer, unassigned) [Compound A169b] | > 10 µM | 9.28 µM
10 | CC[C@H]1CN(C(C)c2ccn3nc(C)c(F)c3n2)[C@H](CC)CN1c1nc(=O)n(C)c2cn(CC#N)nc12 (single isomer, unassigned) [Compound A170a] | > 10 µM | > 10 µM
11 | CCC(c1ccn2nc(C)cc2n1)N1C[C@H](C)N(c2cc(=O)n(C)c3cn(CC#N)nc23)C[C@H]1CC (single isomer, unassigned) [Compound A171b] | 2.69 µM | 5.43 µM
12 | CC[C@@H]1CN(c2cc(=O)n(C)c3cn(CC#N)nc23)[C@@H](C)CN1C(C)c1ccn2nc(C)cc2n1 (single isomer, unassigned) [Compound A172b] | 7.83 µM | > 10 µM
13 | CC[C@@H]1CN(c2cc(=O)n(C)c3cn(CC#N)nc23)[C@@H](C)CN1[C@H](C)c1ccn2nc(C)c(F)c2n1 (single isomer, unassigned) [Compound A173b] | > 10 µM | 2.95 µM
14 | CC[C@H]1CN(C(C)c2ccc3ncc(Cl)n3n2)[C@H](CC)CN1c1nc(=O)n(C)c2cn(CC#N)nc12 (single isomer, unassigned) [Compound A174a] | 6.47 µM | 8.85 µM
15 | CC(c1cc2c(cc1F)OCC(C)(C)O2)N1C[C@H](C)N(c2cc(=O)n(C)c3cn(CC#N)nc23)C[C@H]1C (single isomer, unassigned) [Compound A179a] | 15.9 µM | 1.41 µM
16 | CC(c1cc2c(cc1F)OCC(C)(C)O2)N1C[C@H](C)N(c2cc(=O)n(C)c3cn(CC#N)nc23)C[C@H]1C (single isomer, unassigned) [Compound A179b] | 3.19 µM | 0.323 µM
17 | CC[C@H]1CN(C(C)c2ccc(N)nc2)[C@H](CC)CN1c1cc(=O)n(C)c2cn(CC#N)nc12 (single isomer, unassigned) [Compound A187a] | 1.99 µM | > 10 µM
18 | CC[C@H]1CN(C(C)c2ccc(CN3CCC(OC)CC3)cc2)[C@H](CC)CN1c1cc(=O)n(C)c2cn(CC#N)nc12 (single isomer, unassigned) [Compound A189b] | 11.8 µM | 8.54 µM
19 | CC[C@H]1CN(C(C)c2ccc(C(=O)NC)cc2)[C@H](CC)CN1c1cc(=O)n(C)c2cn(CC#N)nc12 (single isomer, unassigned) [Compound A193b] | 6.51 µM | > 10 µM
20 | CC[C@H]1CN(C(C)c2ccc(C(=O)N3CCC(OC)CC3)cc2)[C@H](CC)CN1c1cc(=O)n(C)c2cn(CC#N)nc12 (single isomer, unassigned) [Compound A194b] | 2.53 µM | 6.05 µM
21 | CC[C@H]1CN(C(C)c2ccc(C(=O)N(C)CCOC)cc2)[C@H](CC)CN1c1cc(=O)n(C)c2cn(CC#N)nc12 (single isomer, unassigned) [Compound A195b] | 4.21 µM | > 10 µM

Stronger by IC50 (DGKα), values ahead:

Row | IC50 (DGKα) | IC50 (DGKζ) | Structure (SMILES)
22 | 1.63 µM | > 10 µM | CC[C@@H]1CN(c2cc(=O)n(C)c3cn(CC#N)nc23)[C@@H](C)CN1C(C)c1ccn2nccc2n1 (single isomer, unassigned) [Compound A166b]
23 | 1.22 µM | > 10 µM | CC[C@H]1CN(C(C)c2ccc3cnncc3c2)[C@H](CC)CN1c1cc(=O)n(C)c2cn(CC#N)nc12 (single isomer, unassigned) [Compound A186b]
24 | 1.08 µM | 2.19 µM | CC[C@H]1CN(C(C)c2ccc(CN3CCC(OC)CC3)cc2)[C@H](CC)CN1c1cc(=O)n(C)c2cn(CC#N)nc12 (single isomer, unassigned) [Compound A189a]
25 | 0.774 µM | 1.41 µM | CC[C@H]1CN(C(C)c2ccc(C(=O)N(C)CCOC)cc2)[C@H](CC)CN1c1cc(=O)n(C)c2cn(CC#N)nc12 (single isomer, unassigned) [Compound A195a]
26 | 0.515 µM | 2.87 µM | CC[C@H]1CN(C(C)c2ccc(C(=O)NC)cc2)[C@H](CC)CN1c1cc(=O)n(C)c2cn(CC#N)nc12 (single isomer, unassigned) [Compound A193a]
27 | 0.291 µM | 1.45 µM | CC[C@H]1CN(C(C)c2ccc(C(=O)N3CCC(OC)CC3)cc2)[C@H](CC)CN1c1cc(=O)n(C)c2cn(CC#N)nc12 (single isomer, unassigned) [Compound A194a]
28 | 0.219 µM | 0.023 µM | CC[C@H]1CN(C(C)c2ccc3ncc(Cl)n3n2)[C@H](CC)CN1c1cc(=O)n(C)c2cn(CC#N)nc12 (single isomer, unassigned) [Compound A167b]
29 | 0.168 µM | 0.019 µM | CC[C@@H]1CN(c2cc(=O)n(C)c3cn(CC#N)nc23)[C@@H](C)CN1[C@@H](C)c1ccn2nc(C)c(F)c2n1 (single isomer, unassigned) [Compound A173a]
30 | 0.158 µM | 0.108 µM | CC[C@@H]1CN(c2cc(=O)n(C)c3cn(CC#N)nc23)[C@@H](C)CN1C(C)c1ccn2nc(C)cc2n1 (single isomer, unassigned) [Compound A172a]
31 | 0.134 µM | 0.088 µM | CC[C@H]1CN(C(C)c2ccn3ncc(F)c3n2)[C@H](CC)CN1c1nc(=O)n(C)c2cn(CC#N)nc12 (single isomer, unassigned) [Compound A164b]
32 | 0.109 µM | 0.0525 µM | CC[C@H]1CN(C(C)c2ccn3nc(C)c(F)c3n2)[C@H](CC)CN1c1nc(=O)n(C)c2cn(CC#N)nc12 (single isomer, unassigned) [Compound A170b]
33 | 0.107 µM | 0.116 µM | CCC(c1ccn2nc(C)cc2n1)N1C[C@H](C)N(c2cc(=O)n(C)c3cn(CC#N)nc23)C[C@H]1CC (single isomer, unassigned) [Compound A171a]
34 | 0.104 µM | 0.051 µM | CC[C@H]1CN(C(C)c2ccn3nc(C)cc3c2)[C@H](CC)CN1c1cc(=O)n(C)c2cn(CC#N)nc12 (single isomer, unassigned) [Compound A162a]
35 | 0.096 µM | 0.012 µM | CC[C@H]1CN(C(C)c2ccn3ncc(F)c3c2)[C@H](CC)CN1c1cc(=O)n(C)c2cn(CC#N)nc12 (single isomer, unassigned) [Compound A165a]
36 | 0.093 µM | 0.227 µM | CC[C@@H]1CN(c2cc(=O)n(C)c3cn(CC#N)nc23)[C@@H](C)CN1C(C)c1ccn2nccc2n1 (single isomer, unassigned) [Compound A166a]
37 | 0.071 µM | 0.426 µM | CC[C@H]1CN(C(C)c2ccn3nccc3n2)[C@H](CC)CN1c1nc(=O)n(C)c2cn(CC#N)nc12 (single isomer, unassigned) [Compound A163b]
38 | 0.054 µM | 0.069 µM | CC[C@H]1CN(C(C)c2ccc3ncc(F)n3n2)[C@H](CC)CN1c1cc(=O)n(C)c2cn(CC#N)nc12 (single isomer, unassigned) [Compound A168b]
39 | 0.053 µM | 0.0089 µM | CC[C@H]1CN(C(C)c2ccc3ncc(Cl)n3n2)[C@H](CC)CN1c1nc(=O)n(C)c2cn(CC#N)nc12 (single isomer, unassigned) [Compound A174b]
40 | 0.053 µM | 0.841 µM | CC[C@H]1CN(C(C)c2ccc3cnncc3c2)[C@H](CC)CN1c1cc(=O)n(C)c2cn(CC#N)nc12 (single isomer, unassigned) [Compound A186a]
41 | 0.047 µM | 0.015 µM | CC[C@H]1CN(C(C)c2ccn3nc(C)c(F)c3n2)[C@H](CC)CN1c1cc(=O)n(C)c2cn(CC#N)nc12 (single isomer, unassigned) [Compound A160b]
42 | 0.032 µM | 0.018 µM | CC[C@H]1CN(C(C)c2ccn3ncc(F)c3n2)[C@H](CC)CN1c1cc(=O)n(C)c2cn(CC#N)nc12 (single isomer, unassigned) [Compound A161b]
